Measured values published in article PMC5218480 (PLoS ONE, 2017).

Tested on: MV-4-11 cells
Test: Gene expression microarray analysis (Affymetrix PrimeView) and GSEA
Type: cell-based, human
Design: RFU PODN (11730768_x_at) / Fold change /veh PODN (11730768_x_at) / RFU LINC00158 (11744669_a_at) / Fold change /veh LINC00158 (11744669_a_at) / RFU DUSP10 (11751237_a_at) / Fold change /veh DUSP10 (11751237_a_at) / RFU ID3 (11757404_x_at) / Fold change /veh ID3 (11757404_x_at) / RFU PLEKHG5 (11737974_s_at) / Fold change /veh PLEKHG5 (11737974_s_at) / RFU LRRC4B (11730491_at) / Fold change /veh LRRC4B (11730491_at) / RFU GIMAP4 (11747438_a_at) / Fold change /veh GIMAP4 (11747438_a_at) / RFU KRT8 (11758183_x_at) / Fold change /veh KRT8 (11758183_x_at) / RFU CNN1 (11734310_a_at) / Fold change /veh CNN1 (11734310_a_at) / RFU VPS37D (11726825_at) / Fold change /veh VPS37D (11726825_at) / RFU C10orf10 (11716522_x_at) / Fold change /veh C10orf10 (11716522_x_at) / RFU KIR2DL2 /// KIR2DL4 /// KIR2DL5A /// KIR2DL5B /// KIR2DS1 /// KIR2DS2 /// KIR2DS3 /// KIR2DS4 /// KIR3DL3 /// KIR3DL3 /// KIR3DS1 (11738374_at) / Fold change /veh KIR2DL2 /// KIR2DL4 /// KIR2DL5A /// KIR2DL5B /// KIR2DS1 /// KIR2DS2 /// KIR2DS3 /// KIR2DS4 /// KIR3DL3 /// KIR3DL3 /// KIR3DS1 (11738374_at) / RFU C1QL1 (11718748_at) / Fold change /veh C1QL1 (11718748_at) / RFU TMPRSS4 (11747572_a_at) / Fold change /veh TMPRSS4 (11747572_a_at) / RFU HAMP (11756126_x_at) / Fold change /veh HAMP (11756126_x_at) / RFU RNFT2 (11725882_a_at) / Fold change /veh RNFT2 (11725882_a_at) / RFU NR4A2 (11747474_a_at) / Fold change /veh NR4A2 (11747474_a_at) / RFU ABCC12 (11746883_a_at) / Fold change /veh ABCC12 (11746883_a_at) / RFU TMEM136 (11760407_x_at) / Fold change /veh TMEM136 (11760407_x_at) / RFU CLDN22 /// WWC2 (11732394_at) / Fold change /veh CLDN22 /// WWC2 (11732394_at) / RFU HLA-DPB1 (11760878_x_at) / Fold change /veh HLA-DPB1 (11760878_x_at) / RFU SPINT1 (11716480_a_at) / Fold change /veh SPINT1 (11716480_a_at) / RFU GAP43 (11754022_s_at) / Fold change /veh GAP43 (11754022_s_at) / RFU A4GNT (11735810_at) / Fold change /veh A4GNT (11735810_at) / RFU PRB3 (11715151_x_at) / Fold change /veh PRB3 (11715151_x_at) / RFU TUBB4B (11761932_at) / Fold change /veh TUBB4B (11761932_at) / RFU CAPN14 (11732068_a_at) / Fold change /veh CAPN14 (11732068_a_at) / RFU TMCC2 (11721928_a_at) / Fold change /veh TMCC2 (11721928_a_at) / RFU IRGQ (11745062_a_at) / Fold change /veh IRGQ (11745062_a_at) / RFU FAM174B (11720279_a_at) / Fold change /veh FAM174B (11720279_a_at) / RFU TMPRSS4 (11748680_a_at) / Fold change /veh TMPRSS4 (11748680_a_at) / RFU FAM212B (11763350_a_at) / Fold change /veh FAM212B (11763350_a_at) / RFU PLEKHG5 (11743358_a_at) / Fold change /veh PLEKHG5 (11743358_a_at) / RFU ZSCAN30 (11745921_a_at) / Fold change /veh ZSCAN30 (11745921_a_at) / RFU CMKLR1 (11741424_a_at) / Fold change /veh CMKLR1 (11741424_a_at) / RFU LOC101060620 /// MAPK8IP1 (11723275_at) / Fold change /veh LOC101060620 /// MAPK8IP1 (11723275_at) / RFU SPTSSB (11747773_x_at) / Fold change /veh SPTSSB (11747773_x_at) / RFU PRSS12 (11739890_at) / Fold change /veh PRSS12 (11739890_at) / RFU BIN1 (11741810_x_at) / Fold change /veh BIN1 (11741810_x_at) / RFU WNT11 (11732464_a_at) / Fold change /veh WNT11 (11732464_a_at) / RFU C10orf10 (11716521_a_at) / Fold change /veh C10orf10 (11716521_a_at) / RFU C5orf56 (11738089_at) / Fold change /veh C5orf56 (11738089_at) / RFU CYB561 (11721691_x_at) / Fold change /veh CYB561 (11721691_x_at) / RFU ANKRD19P (11752326_a_at) / Fold change /veh ANKRD19P (11752326_a_at) / RFU OR2T12 /// OR2T33 /// OR2T8 (11738714_s_at) / Fold change /veh OR2T12 /// OR2T33 /// OR2T8 (11738714_s_at) / RFU VCAN (11748164_a_at) / Fold change /veh VCAN (11748164_a_at) / RFU JSRP1 (11732532_at) / Fold change /veh JSRP1 (11732532_at) / RFU KRTAP10-11 (11738290_x_at) / Fold change /veh KRTAP10-11 (11738290_x_at) / RFU MYO3A (11730013_a_at) / Fold change /veh MYO3A (11730013_a_at) / RFU EBF3 (11725865_a_at) / Fold change /veh EBF3 (11725865_a_at) / RFU CAMK2N1 (11719241_x_at) / Fold change /veh CAMK2N1 (11719241_x_at) / RFU C5orf56 (11738088_a_at) / Fold change /veh C5orf56 (11738088_a_at) / RFU OLFML3 (11715873_a_at) / Fold change /veh OLFML3 (11715873_a_at) / RFU LOC100653217 /// NTM (11731650_a_at) / Fold change /veh LOC100653217 /// NTM (11731650_a_at) / RFU MAPK11 (11762145_a_at) / Fold change /veh MAPK11 (11762145_a_at) / RFU FIZ1 (11724087_x_at) / Fold change /veh FIZ1 (11724087_x_at) / RFU OASL (11726364_x_at) / Fold change /veh OASL (11726364_x_at) / RFU SOX15 (11748057_x_at) / Fold change /veh SOX15 (11748057_x_at) / RFU CD79A (11719716_a_at) / Fold change /veh CD79A (11719716_a_at) / RFU HIST1H1D (11736915_at) / Fold change /veh HIST1H1D (11736915_at) / RFU CASKIN2 (11723855_a_at) / Fold change /veh CASKIN2 (11723855_a_at) / RFU LOC730098 (11760151_x_at) / Fold change /veh LOC730098 (11760151_x_at) / RFU OR4N2 (11742367_at) / Fold change /veh OR4N2 (11742367_at) / RFU PRRT2 (11749266_a_at) / Fold change /veh PRRT2 (11749266_a_at) / RFU SNX32 (11753110_a_at) / Fold change /veh SNX32 (11753110_a_at) / RFU CDHR5 (11726645_a_at) / Fold change /veh CDHR5 (11726645_a_at) / RFU RCAN1 (11760418_a_at) / Fold change /veh RCAN1 (11760418_a_at) / RFU FAM167A (11723789_a_at) / Fold change /veh FAM167A (11723789_a_at) / RFU FAM26E (11764081_at) / Fold change /veh FAM26E (11764081_at) / RFU ISYNA1 (11749810_s_at) / Fold change /veh ISYNA1 (11749810_s_at) / RFU ACY1 (11761880_at) / Fold change /veh ACY1 (11761880_at) / RFU 11764098_at / Fold change /veh 11764098_at / RFU SAMD14 (11745864_x_at) / Fold change /veh SAMD14 (11745864_x_at) / RFU NPB (11741838_a_at) / Fold change /veh NPB (11741838_a_at) / RFU TMPRSS6 (11731388_a_at) / Fold change /veh TMPRSS6 (11731388_a_at) / RFU KRTAP10-2 (11738614_at) / Fold change /veh KRTAP10-2 (11738614_at) / RFU ARHGAP8 /// PRR5-ARHGAP8 (11727945_x_at) / Fold change /veh ARHGAP8 /// PRR5-ARHGAP8 (11727945_x_at) / RFU KRTAP5-7 /// NADSYN1 (11734609_at) / Fold change /veh KRTAP5-7 /// NADSYN1 (11734609_at) / RFU RASL12 (11751679_a_at) / Fold change /veh RASL12 (11751679_a_at) / RFU CDKN2B (11736163_a_at) / Fold change /veh CDKN2B (11736163_a_at) / RFU PRF1 (11729649_at) / Fold change /veh PRF1 (11729649_at) / RFU, ZNF638 /// ZNF638-IT1 / Fold change vs veh, ZNF638 /// ZNF638-IT1 / RFU, PANK3 / Fold change vs veh, PANK3 / RFU, SH3YL1 / Fold change vs veh, SH3YL1 / RFU, ZEB2 / Fold change vs veh, ZEB2 / RFU, NRIP1 / Fold change vs veh, NRIP1 / RFU, PTTG1IP / Fold change vs veh, PTTG1IP / RFU, CAPN2 / Fold change vs veh, CAPN2 / RFU, MED14 / Fold change vs veh, MED14 / RFU, SNORA58 / Fold change vs veh, SNORA58 / RFU, C1orf63 / Fold change vs veh, C1orf63 / RFU, LRRFIP1 / Fold change vs veh, LRRFIP1 / RFU, NDUFAF7 / Fold change vs veh, NDUFAF7 / RFU, SLC12A2 / Fold change vs veh, SLC12A2 / RFU, IBTK / Fold change vs veh, IBTK / RFU, ESF1 / Fold change vs veh, ESF1 / Fold change vs veh, TMEM50B / RFU, TAOK1 / Fold change vs veh, TAOK1 / RFU, ACBD3 / Fold change vs veh, ACBD3 / RFU, TMA16 / Fold change vs veh, TMA16 / RFU, RWDD3 / Fold change vs veh, RWDD3 / RFU, BCAT1 / Fold change vs veh, BCAT1 / RFU, EDEM3 / Fold change vs veh, EDEM3 / RFU, TMEM33 / Fold change vs veh, TMEM33 / RFU, WDR75 / Fold change vs veh, WDR75 / RFU, AHCTF1 / Fold change vs veh, AHCTF1 / RFU, TFRC / Fold change vs veh, TFRC / RFU, ZDHHC17 / Fold change vs veh, ZDHHC17 / RFU, NOM1 / Fold change vs veh, NOM1 / RFU, ARL8B / Fold change vs veh, ARL8B / RFU, ZBTB11 / Fold change vs veh, ZBTB11 / RFU, TAMM41 / Fold change vs veh, TAMM41 / RFU, KIAA1704 /// LOC100996395 / Fold change vs veh, KIAA1704 /// LOC100996395 / RFU, ING1 / Fold change vs veh, ING1 / RFU, TRMT61B / Fold change vs veh, TRMT61B / RFU, FUBP3 / Fold change vs veh, FUBP3 / RFU, TP53 / Fold change vs veh, TP53 / RFU, TNKS2 / Fold change vs veh, TNKS2 / RFU, ZFP14 / Fold change vs veh, ZFP14 / RFU, ACTR2 / Fold change vs veh, ACTR2 / RFU, PPP3R1 / Fold change vs veh, PPP3R1 / RFU, PIK3R1 / Fold change vs veh, PIK3R1 / RFU, HNRNPA1 / Fold change vs veh, HNRNPA1 / RFU, RNF170 / Fold change vs veh, RNF170 / RFU, ZNF28 / Fold change vs veh, ZNF28 / RFU, RNGTT / Fold change vs veh, RNGTT / RFU, OGT / Fold change vs veh, OGT / RFU, BRD1 / Fold change vs veh, BRD1 / RFU, MARS / Fold change vs veh, MARS / RFU, ZNF655 / Fold change vs veh, ZNF655 / RFU, FAHD1 / Fold change vs veh, FAHD1 / RFU, BDP1 / Fold change vs veh, BDP1 / RFU, LRRCC1 / Fold change vs veh, LRRCC1 / RFU, ARID1A / Fold change vs veh, ARID1A / RFU, ZNF146 / Fold change vs veh, ZNF146 / RFU, ZNF330 / Fold change vs veh, ZNF330 / RFU, GPN3 / Fold change vs veh, GPN3 / RFU, C9orf123 / Fold change vs veh, C9orf123 / RFU, N4BP2L2 / Fold change vs veh, N4BP2L2 / RFU, ARFIP1 / Fold change vs veh, ARFIP1 / RFU, FAM179B / Fold change vs veh, FAM179B / RFU, BCL10 / Fold change vs veh, BCL10 / RFU, UHRF1BP1L / Fold change vs veh, UHRF1BP1L / RFU, BET1 / Fold change vs veh, BET1 / RFU, CNOT2 / Fold change vs veh, CNOT2 / RFU, ZNF268 / Fold change vs veh, ZNF268 / Fold change vs veh, ZNF507 / RFU, DGCR2 / Fold change vs veh, DGCR2 / RFU, WDSUB1 / Fold change vs veh, WDSUB1 / Fold change vs veh, HSP90B1 /// MIR3652 / RFU, ADSS / Fold change vs veh, ADSS / RFU, GK / Fold change vs veh, GK / RFU, ZNF148 / Fold change vs veh, ZNF148 / RFU, TAF9 / Fold change vs veh, TAF9 / RFU, SLC1A5 / Fold change vs veh, SLC1A5 / RFU, SLMO2 / Fold change vs veh, SLMO2 / RFU, ABCC4 / Fold change vs veh, ABCC4 / RFU, LOC101060439 /// RAP1B / Fold change vs veh, LOC101060439 /// RAP1B / RFU, RFX7 / Fold change vs veh, RFX7 / RFU, GTPBP10 / Fold change vs veh, GTPBP10 / RFU, CNEP1R1 / Fold change vs veh, CNEP1R1 / RFU, BIVM-ERCC5 /// ERCC5 / Fold change vs veh, BIVM-ERCC5 /// ERCC5 / RFU, ILF3 / Fold change vs veh, ILF3 / RFU 11762660_at / Fold change /veh 11762660_at / RFU VCAN (11757783_s_at) / Fold change /veh VCAN (11757783_s_at) / RFU DDX43 (11728927_at) / Fold change /veh DDX43 (11728927_at) / RFU KRT8 (11758188_x_at) / Fold change /veh KRT8 (11758188_x_at) / RFU NKD1 (11759106_at) / Fold change /veh NKD1 (11759106_at) / RFU SRD5A1 (11742802_a_at) / Fold change /veh SRD5A1 (11742802_a_at) / RFU TPSAB1 /// TPSB2 (11721975_s_at) / Fold change /veh TPSAB1 /// TPSB2 (11721975_s_at) / RFU GSTM3 (11746129_a_at) / Fold change /veh GSTM3 (11746129_a_at) / RFU IL23R (11737362_x_at) / Fold change /veh IL23R (11737362_x_at) / RFU TMEM51 (11727254_a_at) / Fold change /veh TMEM51 (11727254_a_at) / RFU PIWIL2 (11732686_x_at) / Fold change /veh PIWIL2 (11732686_x_at) / RFU ORM1 (11744905_x_at) / Fold change /veh ORM1 (11744905_x_at) / RFU CCDC152 (11743942_at) / Fold change /veh CCDC152 (11743942_at) / RFU ECM1 (11717891_a_at) / Fold change /veh ECM1 (11717891_a_at) / RFU IL23R (11748794_a_at) / Fold change /veh IL23R (11748794_a_at) / RFU TNFAIP8L3 (11732012_x_at) / Fold change /veh TNFAIP8L3 (11732012_x_at) / RFU MBOAT4 (11741988_at) / Fold change /veh MBOAT4 (11741988_at) / RFU 11764193_at / Fold change /veh 11764193_at / RFU TMEM53 (11763286_at) / Fold change /veh TMEM53 (11763286_at) / RFU MAGEB2 (11727129_at) / Fold change /veh MAGEB2 (11727129_at) / RFU TMEM200A (11744735_a_at) / Fold change /veh TMEM200A (11744735_a_at) / RFU CCDC152 (11751479_a_at) / Fold change /veh CCDC152 (11751479_a_at) / RFU FAM211A (11726209_a_at) / Fold change /veh FAM211A (11726209_a_at) / RFU RGS16 (11746705_a_at) / Fold change /veh RGS16 (11746705_a_at) / RFU VCAN (11755009_s_at) / Fold change /veh VCAN (11755009_s_at) / RFU RHOB (11743442_s_at) / Fold change /veh RHOB (11743442_s_at) / RFU RGS16 (11720943_a_at) / Fold change /veh RGS16 (11720943_a_at) / RFU RGS16 (11720944_at) / Fold change /veh RGS16 (11720944_at) / RFU, VPS4B / Fold change vs veh, VPS4B / RFU, CREB1 / Fold change vs veh, CREB1 / RFU, DNAJC13 / Fold change vs veh, DNAJC13 / RFU, GNAQ / Fold change vs veh, GNAQ / RFU, CDK5R1 / Fold change vs veh, CDK5R1 / RFU, ZRANB3 / Fold change vs veh, ZRANB3 / RFU, CUL4A / Fold change vs veh, CUL4A / RFU, CCNY / Fold change vs veh, CCNY / RFU, UFL1 / Fold change vs veh, UFL1 / RFU, COG3 / Fold change vs veh, COG3 / RFU, DIAPH2 / Fold change vs veh, DIAPH2 / RFU, SKA2 / Fold change vs veh, SKA2 / RFU, AFF3 / Fold change vs veh, AFF3 / RFU, LMF1 / Fold change vs veh, LMF1 / RFU, IPO11 / Fold change vs veh, IPO11 / RFU, DFFB / Fold change vs veh, DFFB / RFU, FOXP1 / Fold change vs veh, FOXP1 / RFU, CARD8 / Fold change vs veh, CARD8 / RFU, STRN3 / Fold change vs veh, STRN3 / RFU, ADK / Fold change vs veh, ADK / RFU, RASSF2 / Fold change vs veh, RASSF2 / RFU, WIPF1 / Fold change vs veh, WIPF1 / RFU, LARP1B / Fold change vs veh, LARP1B / RFU, RASA1 / Fold change vs veh, RASA1 / RFU, RB1 / Fold change vs veh, RB1 / RFU, PPFIA1 / Fold change vs veh, PPFIA1 / RFU, MAT2A / Fold change vs veh, MAT2A / RFU, CCT5 / Fold change vs veh, CCT5 / RFU, WDR92 / Fold change vs veh, WDR92 / RFU, CUX1 / Fold change vs veh, CUX1 / RFU, TTC7A / Fold change vs veh, TTC7A / RFU, TMEM135 / Fold change vs veh, TMEM135 / RFU, DEPTOR / Fold change vs veh, DEPTOR / RFU, CPM / Fold change vs veh, CPM / RFU, DNAJB6 / Fold change vs veh, DNAJB6 / RFU, CACNA2D3 / Fold change vs veh, CACNA2D3 / RFU, DTX4 / Fold change vs veh, DTX4 / RFU, TFCP2 / Fold change vs veh, TFCP2 / RFU, GMCL1 /// GMCL1P1 / Fold change vs veh, GMCL1 /// GMCL1P1 / RFU, AEBP2 / Fold change vs veh, AEBP2 / RFU, SNHG1 /// SNORD22 /// SNORD25 /// SNORD26 /// SNORD27 /// SNORD28 /// SNORD29 /// SNORD31 / Fold change vs veh, SNHG1 /// SNORD22 /// SNORD25 /// SNORD26 /// SNORD27 /// SNORD28 /// SNORD29 /// SNORD31 / Fold change (Aza/veh), C12orf56 (ProbeSet 11735607_a_at) / Fold change (ACY-1035/veh), C12orf56 (ProbeSet 11735607_a_at) / Fold change (Aza/veh), FGFR1OP (ProbeSet 11751329_s_at) / Fold change (ACY-1035/veh), FGFR1OP (ProbeSet 11751329_s_at) / Fold change (Aza/veh), VPS36 (ProbeSet 11739960_a_at) / Fold change (ACY-1035/veh), VPS36 (ProbeSet 11739960_a_at) / RFU SYPL1 (11715823_x_at) / Fold change /veh SYPL1 (11715823_x_at) / RFU IGFBP7 (11715501_s_at) / Fold change /veh IGFBP7 (11715501_s_at) / RFU REEP3 (11722064_at) / Fold change /veh REEP3 (11722064_at) / RFU IGLL1 (11728026_x_at) / Fold change /veh IGLL1 (11728026_x_at): dose or concentration left out as unconfirmed
Settings: ProbeSet 11753616_s_at; LIST B

Structure (SMILES): Nc1ncn([C@@H]2O[C@H](CO)[C@@H](O)[C@H]2O)c(=O)n1 [azacitidine]
- Fold change vs veh, ARL8B: 0.84
